Assay results reported in patent US5670506A, “Halogen, isothiocyanate or azide substituted xanthines” (Cell Therapeutics, Inc., priority 1993, dated 1997).

Experiments:
PAPH = PAPH blockade in a specific activation pathway; format: cell-based, human; conditions: specific activation pathway that does not involve PI
From the text: The compounds and pharmaceutical compositions of the invention include inhibitors of subspecies of LPAAT and PAPH enzymes with substrate specificity for intermediates with 1,2-diunsaturated and 1-alkyl, 2-unsaturated subspecies. One representative example of such an inhibitor (although not within the genus of inventive compounds) is PTX. […] It should be emphasized that the compounds of the invention affect that subset of PAPH and LPAAT that relates to substrates with unsaturated fatty acids other than arachidonate in the sn-2 position, not the housekeeping forms of these enzymes that serve the PI pathway.

[1] = tested on: polymorphonuclear leukocytes; conditions: in response to a stimulator of chemotaxis; U.S. Pat. No. 4,636,507; cited from earlier work
LPAAT = assay: formation of remodeled PA (LPAAT), in vitro; format: cell-based; conditions: high PTX concentrations
From the text: Even in the presence of PTX, cells continue to form PA through the action of PLD, and DAG is also formed through the action of phospholipase C on PC and PI. The latter pathway are not inhibited by the inventive compounds or PTX. In PTX-treated cells, DAG derived from remodeled and PLA-generated PA is diminished (e.g., 1,2-sn-dioleoyl DAG, 1-alkyl,2-linoleoyl DAG and 1-alkyl,2-docosahexaneolyl DAG). Therefore, the inventive compounds and PTX inhibit the formation of only a certain species of PA and DAG by selectively inhibiting a specific second messenger pathway that is only activated in cells by noxious stimuli, but is not used to signal normal cellular housekeeping functions.

[2] = tested on: ras-transformed NIH/3T3 cells
[3] = tested on: ras-transformed NIH/3T3 cells; assay: serum-stimulated generation of DAG and PA in ras-transformed NIH/3T3 cells; format: cell-based; conditions: pretreatment of cells
From the text: For example, activating ras mutations result in increased generation of DAG on stimulation with mitogens, although the sources of DAG have differed between experimental systems. In nontransformed renal mesangial cells, IL-1β stimulation increased PLA2 and LPAAT activation, resulting in generation of sn-2 unsaturated PA and subsequent hydrolysis to DAG by phosphatidate phosphohydrolase. The ras transformation in NIH/3T3 cells upregulates serum-stimulated generation of DAG and PA. The specific species of DAG that is stimulated by serum is dioleoyl and for PA are dilinoleoyl and dioleoyl. […] The inhibition occurs either through suppressing the generation of PA de novo from lysoPA, or through inhibition of one or both arms of the Lands cycle. […] Therefore, the ras transformation mediates an upregulation of PA through indirect stimulation of PLA2 and/or LPAAT activity.

TNF = conditions: human, in vivo; cited from earlier work
[4] = U.S. Pat. Nos. 4,515,795 and 4,576,947; cited from earlier work
murine splenocytes = assay: inhibition of murine splenocyte proliferation stimulated by anti-mu and IL-4; format: cell-based; conditions: FIG. 5; anti-mu (10 μg/ml) and IL-4 (12.5 ng/ml)
Protocol: Drug was added to the cells at the doses indicated two hours prior to activation with anti-mu and IL-4. This in vitro assay is a model for immune suppression and treatment or prevention of autoimmune diseases. […] Background counts were less than 200 cpm.
There are a series of in vitro assays that can be used to measure immunosuppressive activity of a particular compound. These assays are a predictive model for treatment or prevention of autoimmune diseases, such as diabetes, lupus, arthritis, and the like. A first assay measures immunosuppressive activity of a drug at the B cell level. Spleens from adult mice contain immature B cells that express surface IgM. Cross-linking the surface IgM with an anti-mu antibody results in B cell proliferation. Additionally, this activation results in an increased expression of interleukin-4 receptors(IL-4R) on the surface of such cells. IL-4 acts as a growth factor for B cells and will increase the amount of proliferation induced by anti-mu. In the first assay, a mixture of anti-mu and murine IL-4 is added to murine splenocytes to cause their proliferation. Mice spleens are obtained from adult mice and a single cell suspension is prepared in RPMI 1640 medium supplemented with 10% FCS. […] Proliferation is determined on the third day with a pulse of tritiated thymidine. […]

murine thymocytes = assay: inhibition of murine thymocyte proliferation stimulated by ConA and IL-1α; format: cell-based, murine (Balb/C mice); conditions: FIG. 4, 4 days
Protocol: The drugs (inventive compounds) were added to the cells at the doses indicated two hours prior to activation with ConA and IL-1α. […] Background counts were less than 200 cpm. This in vitro assay is a model for immune suppression and treatment or prevention of autoimmune diseases.
A third assay measures an ability of an inventive compound to inhibit IL-2-induced proliferation of murine thymocytes. Thymus glands are obtained from 4-6 week old mice and plated as a single cell suspension into flat bottomed wells in RPMI 1640 medium supplemented with 10% fetal calf serum. The inventive compounds are added to appropriate wells and the cells are incubated for 1-2 hrs. Concanavilin A (ConA, 0.25 μg/ml) and IL-1 (20 ng/ml) are added and the plates are incubated for 4 days. Cell proliferation is determined as above. There are also variations for this assay that follow the same basic stimulation and measure inhibition of proliferation format. […]
This example illustrates the effect of CT1514, CT1525, CT1527, CT1529, CT1577, CT1583, CT1589, CT1595, CT2519, CT1205, CT1801 and CT1908 on inhibition of murine thymocyte proliferation stimulated by Concanavalin A (ConA) and interleukin-2 (IL-2) (FIG. 4). […] The cells were harvested and incorporated tritiated thymidine was determined in a liquid scintillation counter. […]

[5] = tested on: mixed lymphocyte assay culture (PBMC); assay: percent viable cells in mixed lymphocyte assay culture after six days; format: cell-based, human; conditions: 100 μM
Protocol: Control cells that have not been exposed to a drug are generally 78 to 85% viable under such culture conditions. For this graph, all of the compounds were present at 100 μM, which is usually well above their IC50 concentration in this assay (see FIG. 1).

[6] = tested on: CMV promoter activity in transformed (adenovirus) cells; assay: CMV promoter assay (gene transcription and translation, cytotoxic activity); format: cell-based
From the text: This example illustrates data regarding proliferative activity of various inventive compounds for inducting CMV promoter activity. The CMV promoter assay measures gene transcription and translation activity wherein any active compounds will nave cytotoxic activity to inhibit cellular protein synthesis machinery in transformed (adenovirus) cells.

[7] = tested on: TNF release from monocytes in whole blood; assay: ex vivo human TNF model, LPS-mediated TNF release in whole blood; format: cell-based; conditions: FIG. 14
Protocol: (§1) This model adds LPS to whole blood (normal human volunteers) to trigger a dose-dependent synthesis and extracellular release of TNF according to Desch et al. (Lymphokine Res. 8:141, 1989). The ex vivo model examines whether LPS-mediated release of TNF from monocytes in whole blood can be block by an inventive compound.
An ex vivo human sepsis model is described in Desch et al., Lymphokine Res. 8:141, 1989 and in Ooi et al., J. Exp. Med. 174:649, 1991. Briefly, whole blood from humans is incubated with LPS (endotoxin). TNF released from cells (mostly from monocytes) is measured. The inventive compounds lower TNF levels as compared with untreated controls in this model.
as §1, with “This example illustrates a comparative experiment comparing CT1595, CT1529 and CT2519 in an ex vivo human TNF model described herein. This assay is a predictive model for treatment and prevention of septic shock and sepsis syndrome. This” for “This”

human stromal cells = assay: inhibition of proliferation of human stromal cells stimulated with PDGF; format: cell-based
Protocol: (§2) This assay is a model for restenosis and treatment of atherosclerosis and coronary artery disease. Stromal cells were starved in serum-free media for one day and then stimulated with 50 ng/ml PDGF-BB. The drags were added at the indicated concentrations one hour prior to PDGF stimulation. Tritiated thymidine was added for one day at the time of PDGF stimulation and the cells were harvested and counted by liquid scintillation counting 24 hrs later. Background counts (i.e., starved cells) were approximately 1% of control levels.
Another assay for measuring activity of the inventive compounds involves determining PDGF (platelet derived growth factor) proliferative response using human-derived stromal cells. Human stromal cells are plated (e.g., about 2000 cells per well) in defined media (e.g., 69% McCoy's, 12.5% fetal calf serum, 12.5% horse serum, 1% antibiotics, 1% glutamine, 1% vitamin supplement, 0.8% essential amino acids, 1% sodium pyruvate, 1% sodium bicarbonate, 0.4% non-essential amino acids and 0.36% hydrocortisone). Two to three days later, the stromal cells are starved in serum-free media. Twenty four hours later, the cells are treated with a stimulating agent, such as PDGF-AA, PDGF-BB or basic FGF (fibroblast growth factor) with or without IL-1α or TNF, and tritiated thymidine. Cell proliferation is determined by liquid scintillation counting.
as §2, with “drugs” for “drags”

SMILES	PAPH block (PAPH)	stimulation of chemotaxis in polymorphonuclear leukocytes [1]	formation of remodeled PA (LPAAT)	cytotoxicity associated with inhibition of ras-transformed cells [2]	inhibition of ras-transformed NIH/3T3 cells ([2]; vs parental cells)	generation of phospholipid second messengers (DAG, PA) [3]	TNF levels in normal volunteers (TNF)	cerebral blood flow [4]	inhibition of splenocyte proliferation (murine splenocytes)	inhibition of thymocyte proliferation (murine thymocytes)	viability in MLR culture [5]	cytotoxicity in CMV promoter assay ([6]; in words)	IC50 ([6]; read-out: IC50 (μM), CMV promoter assay) [µM]	block of LPS-mediated TNF release [7]	inhibition of human stromal cell proliferation (human stromal cells; FIG. 7, 50 ng/ml PDGF-BB, in words)	IC50 (human stromal cells; Homo sapiens, read-out: IC50, inhibition of human stromal cell proliferation) [µM]
CC(=O)CCCCn1c(=O)c2c(ncn2C)n(C)c1=O [PTX, 1-(5-oxohexyl)-3,7-dimethylxanthine]	blocks PAPH	stimulate chemotaxis	blocks formation of remodeled PA	not associated with significant cytotoxicity	inhibits ras-transformed NIH/3T3 cells more than parental cells	blocks generation of these phospholipid second messengers	TNF levels were higher among PTX recipients									
CC(O)CCCCn1c(=O)c2c(ncn2C)n(C)c1=O (centres unmarked) [M1, 1-(5-hydroxyhexyl)-3,7-dimethylxanthine]		stimulate chemotaxis						increasing cerebral blood flow								
CC(CCCCn1c(=O)c2c(ncn2C)n(C)c1=O)N=C=S (centres unmarked) [CT2519, 1-(5-isothiocyanatohexyl)-3,7-dimethylxanthine]									most potent inhibitors of splenocyte proliferation in a dose-response manner	most potent drugs	not cytotoxic at 100 μM	most cytotoxic compound tested	10	could block TNF release in a dose-dependent fashion	strongly inhibit proliferation	< 10
